Reference: paper PMC11363324 (ACS Central Science, 2024)

Legend:
[1] = system: C57BL/6J mice; experiment: animal or person; assay type: in vivo; details: Mus musculus, sc, read-out: antinociception ED50 (and 95% CI)
[2] = system: C57BL/6J mice; details: mouse, in vivo

## CN1CC[C@]23c4c5ccc(O)c4O[C@H]2[C@@H](O)C=C[C@H]3[C@H]1C5 [Morphine]
[1]
  ED50: 4 mg/kg
[2]; C57BL/6J
  withdrawal: jumping frequency vs saline: ****p < 0.0001
  withdrawal: teeth chattering frequency vs saline: ***p = 0.0003
[2]
  withdrawal: forepaw licking frequency vs saline: significant
  withdrawal: rearing frequency vs saline: significant
